# Laboratory results reported in BindingDB's records for doi:10.1016/j.bmcl.2006.01.055 (Bristol-Myers Squibb Pharmaceutical Research Institute, 2006).
# Assay: Inhibition of beta-amyloid peptide production in CHO N9 cell line
row,IC50,SMILES
1,3000 nM,CCC[C@H](C(=O)NCc1ccco1)[C@@H](CC(C)C)C(=O)N[C@H]1CCCCN(Cc2cccc(Oc3ccccc3)c2)C1=O
2,5000 nM,CCCCNC(=O)[C@@H](CCC)[C@@H](CC(C)C)C(=O)N[C@H]1CCCCN(Cc2cccc(Oc3ccccc3)c2)C1=O
3,54 nM,CCC[C@H](C(N)=O)[C@@H](CC(C)C)C(=O)N[C@H]1CCCCN(Cc2cccc(Nc3cccc(OC)c3)c2)C1=O
4,200 nM,"CCC[C@H](C(=O)NO)[C@@H](CC(C)C)C(=O)N[C@H]1CCCCN(Cc2cccc(Oc3ccccc3)c2)C1=O [(2S,3R)-N1-hydroxy-3-isobutyl-N4-((S)-2-oxo-1-(3-phenoxybenzyl)azepan-3-yl)-2-propylsuccinamide]"
5,29 nM,CCC[C@H](C(N)=O)[C@@H](CC(C)C)C(=O)N[C@H]1CCCCN(Cc2cccc(Nc3ccccc3Cl)c2)C1=O
6,17 nM,CCC[C@H](C(N)=O)[C@@H](CC(C)C)C(=O)N[C@H]1CCCCN(Cc2cccc(Nc3ccc(F)c(Cl)c3)c2)C1=O
7,152 nM,CCC[C@H](C(N)=O)[C@@H](CC(C)C)C(=O)N[C@H]1CCCCN(Cc2cccc(Nc3ccc4c(c3)OCO4)c2)C1=O
8,17 nM,CCC[C@H](C(N)=O)[C@@H](CC(C)C)C(=O)N[C@H]1CCCCN(Cc2cccc(Nc3cccc(C)c3)c2)C1=O
9,6000 nM,CCC[C@H](C(=O)NC1CCCC1)[C@@H](CC(C)C)C(=O)N[C@H]1CCCCN(Cc2cccc(Oc3ccccc3)c2)C1=O
10,6800 nM,CCC[C@H](C(=O)NO)[C@@H](CC(C)C)C(=O)N[C@H]1CCCCN(Cc2ccccc2)C1=O
11,160 nM,CCC[C@H](C(N)=O)[C@@H](CC(C)C)C(=O)N[C@H]1CCCCN(Cc2cccc(Nc3ccc(OC)cc3)c2)C1=O
12,15 nM,"CCC[C@H](C(N)=O)[C@@H](CC(C)C)C(=O)N[C@H]1CCCCN(Cc2cccc(Nc3ccccc3)c2)C1=O [(2R,3S)-N1-((S)-1-(3-(phenylamino)benzyl)-2-oxoazepan-3-yl)-2-isobutyl-3-propylsuccinamide]"
13,30 nM,CCC[C@H](C(N)=O)[C@@H](CC(C)C)C(=O)N[C@H]1CCCCN(Cc2cccc(Nc3ccc(C(F)(F)F)cc3)c2)C1=O
14,3000 nM,CCC[C@H](C(=O)NC/C=C/Cc1ccccc1)[C@@H](CC(C)C)C(=O)N[C@H]1CCCCN(Cc2cccc(Oc3ccccc3)c2)C1=O
